From patent publication US20170226541A1, “METHOD OF IMPROVING SOLVENT TOLERANCE IN MICROBES” (Nanyang Technological University, priority 2014, published 2017)
Entries after “also recorded” stand apart in the source; their conditions may differ.

What was measured:
[1] = Single molecule tracking of DHPE-Atto647N in supported lipid bilayer; set-up: species or system E. coli; details: for effect on MSD / bilayer stiffness (comparison of OPV COEs): no butanol, OPV COE final concentration 1 μM (FIG. 4)
Protocol: SLB formation, MIM treatment: A 3 mg/ml chloroform solution of total E. coli lipid extract (Avanti Polar Lipids, Alabaster, Ala.) was mixed with DHPE-Atto647N (Atto-Tec, Slegen, Germany) to 0.001% mol in a round bottom flask produce large unilamellar vesicles (LUVs). Chloroform was evaporated using a rotary evaporator for 2 hours at 65° C. The lipid film was resuspended in 10 mM HEPES and 150 mM NaCl, pH 7.4, vortexed for 10 min and sonicated in a bath sonicator until a clear solution was obtained. One hundred μl of such a prepared LUVs solution were deposited in a custom made plastic holder, glued to a coverslip, and incubated for 60 min at 65° C. Prior to use, coverslips were cleaned by 30 min sonication in 2% Hellmanex (Hellma Analytics, Millheim, Germany), followed by thorough rinsing with deionized (DI) water. Un-fused vesicles were removed by 10× washing with 400 μl of 10 mM Hepes, 150 mM NaCl, 3 mM EDTA, pH 7.4 buffer. Calculated volumes of COE1-5C, DSSN+, DSBN+ and 4F-DSBN+ (0.1 mM) were added directly to the chamber to final concentrations of 1 μM, mixed and allowed to equilibrate for 5 min prior to measurement.
Data acquisition: For total internal reflection microscopy (TIRF) imaging, a modified Nikon Eclipse TE2000U TIRF setup was used, equipped with a 100× 1.49NA objective (Nikon, Japan). Laser light from a 638 nm LED laser was passed through a 660LP dichromic mirror (Chroma Technology Corp, Bellows Falls, Vt.) and used for sample illumination under the TIR angle. Emitted light was filtered using a 738/75 […] and collected on a back-illuminated EMCCD camera chip (Andor iXON897, 512x512px, Andor Technology, USA). For each condition, 4 to 6 datasets of 4000 frames at 97 fps were collected from different regions of the membrane. Immobile particles and contaminants were bleached prior to measurement.
Data analysis: A Mosaic Particle Tracker ImageJ plugin was used to localize the centroid of single molecule signals and link them to trajectories. TrackArt software was used to filter spurious trajectories and extract mean square displacements and diffusion coefficients. […] The slowly-diffusing population occurs most likely due to marker interaction with the surface.

E. coli K12 [2] = assay: Butanol challenge, microdilution growth test; type: cell-based, Escherichia coli K12 (ATTC 10798); details: for protective effect on growth under butanol challenge: 0 to 3.5% (v/v) butanol, DSSN+ 5 μM
Protocol: Butanol challenge was assessed by using a microdilution format modified standard toxicity test based on the method described by Wiegand et al (I. Wiegand, K. Hilpert, R. E. W. Hancock, Nat. Protocols 2008, 3, 163-175). Cultures of E. coli K12 (ATTC 10798) grown in LB broth were harvested at late log phase and diluted to 1×10^6 cfu ml. One hundred μl of the suspension were inoculated into 96 well plates with each well containing an equal volume of LB broth and spiked with the following concentrations of 1-butanol: […] in a 96 well plate achieving a final inoculum density of 5×10^5 and a final butanol concentration of 0, 0.85, 1.75, and 3.5% (v/v). Tests were run in triplicate with and without COE1-5C (10 μM) and DSSN+ (5 μM) using the appropriate sterility and growth controls. Specific growth rates were expressed as an average of all replicates.

E. coli K12 [3] = assay: Membrane polarisation (DiSC3 fluorescence); type: cell-based, Escherichia coli K12; details: 10 μM COE1-5C; 0, 1.75 or 3.5% (v/v) 1-butanol
Protocol: Cultures of E. coli K12 grown in LB broth were harvested at late log phase and diluted to 5×10^5 cfu ml. Cells were centrifuged at 5000×g for 5 min and washed in phosphate buffered saline (PBS). The process was repeated three times and the pellet finally resuspended in PBS. Two-hundred μl of the cell suspension were inoculated into 96 well plates, 2 μL of the depolarization detecting probe 3,3-diethylthiodicarbocyanine (DiSC3) iodide was added to the treatment wells and to half of these, 10 μM COE1-5C. The cells were allowed to incubate for around 30 min and the fluorescence intensity at 670 nm was measured after excitation at 620 nm until a stable base line was reached. Zero, 1.75, or 3.5% (v/v) 1-butanol was added to the test well and the increase in fluorescence intensity was taken at 1 min intervals (Ex=λ620, Em=Δ670) as a bottom reading with optimal gain to determine the degree of membrane polarization. Buffer, dye, and COE1-5C blanks were monitored and the data corrected accordingly.

E. coli K12 [4] = assay: Toxicity tests (minimum inhibitory concentration); type: cell-based, Escherichia coli K12
Source text: Relative toxicities of DSSN+ and DSBN+ are positively correlated with the extent of mismatch between the length of the hydrophobic molecular backbone and bilayer thickness. Membrane insertion of the shorter, 3-ringed DSBN+ thinned the membrane more than the 4-ringed DSSN+, perturbing it to a greater extent, and was correspondingly more toxic. In this example, the objective is to mitigate the toxic effect of organic solvents on biological membranes. To avoid synergistic membrane disruption in systems containing both MIMs and solvents, MIMs that were the least likely to perturb membranes, that is, DSSN+×(which was previously shown to maintain the natural thickness of membranes) and COE1-5C, were selected. The insertion of COE1-5C, whose molecular length (≈5 nm) is greater than the thickness of the bilayer (≈4 nm), would be expected to initiate membrane perturbation because of hydrophobic mismatch. However, positive hydrophobic mismatch perturbs lipid bilayers less than instances of negative mismatch—where the length of the insertion molecules is shorter than the thickness of the bilayer. The experimental concentration of COE1-5C used in this study (10 μM) is much lower than its minimum inhibitory concentration (MIC). […] This is considerably greater than for DSSN+, DSBN+ and 4F-DSBN+, further supporting the hypothesis that membrane thinning is a potent toxicity determinant. […]

E. coli K12 cells = assay: Modified microbial adhesion to hydrocarbon (MATH) test; type: cell-based, Escherichia coli K12
Protocol: To test for cell surface modifications brought about by COE1-5C that might affect hydrophobicity, E. coli K12 cells treated with COE1-5C (10 μM) were tested for their affinity for either the butanol or aqueous phase against an untreated control. The tendency of E. coli to partition into the butanol phase or remain in the aqueous phase was assessed optically by measuring the reduction in turbidity (OD600) of tubes containing a saturated mixture of butanol (1.5 ml) and buffer (18.5 ml). The tests were carried out with appropriate blanks and both positive and negative controls. MATH tests were carried out in triplicate and expressed as the quotient of the difference between the OD600 at the start and […] and the OD600 at the […].

## C[N+](C)(C)CCCCCCN(CCCCCC[N+](C)(C)C)c1ccc(/C=C/c2ccc(/C=C/c3ccc(N(CCCCCC[N+](C)(C)C)CCCCCC[N+](C)(C)C)cc3)cc2)cc1.[I-].[I-].[I-].[I-] [DSBN+, reference compound]
[1]
  effect on MSD / bilayer stiffness (comparison of OPV COEs): to a lesser degree than the five-ringed structure

## C[N+](C)(C)CCCCCCN(CCCCCC[N+](C)(C)C)c1ccc(C=Cc2ccc(C=Cc3ccc(C=Cc4ccc(C=Cc5ccc(N(CCCCCC[N+](C)(C)C)CCCCCC[N+](C)(C)C)cc5)cc4)cc3)cc2)cc1.[I-].[I-].[I-].[I-] [COE1-5C]
E. coli K12 [2]; COE1-5C 10 μM
  protective effect on growth under butanol challenge: increased the growth rate of E. coli K12 in all instances of butanol challenge; also recorded: mitigates the toxic effect of butanol
E. coli K12 [2]; 3.5% v/v butanol
  growth rate of treated cells relative to untreated cells (fold): threefold increase
  growth rate relative to a control: about 13%
E. coli K12 [2]; 3.5% v/v butanol, COE1-5C 10 μM, listed as conjugated oligo-electrolyte
  specific growth rate: 0.095 h⁻¹
E. coli K12 [2]; 3.5% v/v butanol, listed as OPV COE
  growth rate of treated cells relative to untreated cells (fold): three times
E. coli K12 [2]; 3.5% v/v butanol, listed as conjugated oligo-electrolyte
  growth rate of treated cells relative to untreated cells (fold): 3
[1]; 0% (v/v) butanol
  reduction in MSD of membrane marker: 62%
[1]; 10 μM COE1-5C, 0.85, 1.75, 3.50% v/v butanol (FIG. 2)
  diffusion coefficients in model membranes versus control: much lower than in control systems
[1]; 0.85% (v/v) butanol
  reduction in MSD of membrane marker: 38%
[1]; 1.75% (v/v) butanol
  reduction in MSD of membrane marker: 22%
[1]; 3.5% v/v butanol
  reduction in MSD of membrane marker: 15%
[1]
  effect on MSD / bilayer stiffness (comparison of OPV COEs): increased bilayer stiffness to the greatest degree
E. coli K12 [3]
  membrane depolarization by butanol: mitigated the depolarization efficiency of butanol
E. coli K12 [4]
  minimum inhibitory concentration (MIC): 128 µM
E. coli K12 cells; 10 μM COE1-5C
  tendency of treated cells to partition into the butanol phase relative to untreated cells: less than half that of untreated cells
E. coli K12 cells; E. coli K12 treated with 10 μM COE1-5C, butanol/buffer partitioning, OD600
  MATH value: 0.17 (±0.027)

## C[N+](C)(C)CCCCCCN(CCCCCC[N+](C)(C)C)c1ccc(/C=C/c2ccc(/C=C/c3ccc(/C=C/c4ccc(N(CCCCCC[N+](C)(C)C)CCCCCC[N+](C)(C)C)cc4)cc3)cc2)cc1.[I-].[I-].[I-].[I-] [DSSN+, reference compound]
E. coli K12 [2]; COE1-5C 10 μM
  protective effect on growth under butanol challenge: no protective effect; also recorded: no growth of E. coli K12 was observed
E. coli K12 [2]; COE1-5C 10 μM, listed as DSSN^+
  protective effect on growth under butanol challenge: do not
[1]
  effect on MSD / bilayer stiffness (comparison of OPV COEs): to a lesser degree than the five-ringed structure

## C[N+](C)(C)CCCCCCN(CCCCCC[N+](C)(C)C)c1ccc(/C=C/c2c(F)c(F)c(/C=C/c3ccc(N(CCCCCC[N+](C)(C)C)CCCCCC[N+](C)(C)C)cc3)c(F)c2F)cc1.[I-].[I-].[I-].[I-] [4F-DSBN+, reference compound]
[1]
  effect on MSD / bilayer stiffness (comparison of OPV COEs): stiffened the least amount
